Here are results for one molecule from ChEMBL document CHEMBL4402613, “Targeting ALK2: An Open Science Approach to Developing Therapeutics for the Treatment of Diffuse Intrinsic Pontine Glioma” (J Med Chem, 2020).

The conditions of data set [1]: human, microsomes, 1 h, 1 µM.
Description: Microsomal stability in human liver microsomes assessed as parent compound remaining at 1 uM and 37 degree C measured after 60 mins in presence of NADP+ by LC-QTOF/MS analysis
For data set [2] the following is noted: mouse, microsomes, 1 h, 1 µM.
Description: Microsomal stability in CD-1 mouse liver microsomes assessed as parent compound remaining at 1 uM and 37 degree C measured after 60 mins in presence of NADP+ by LC-QTOF/MS analysis
Data set [3] deals with Voltage-gated inwardly rectifying potassium channel KCNH2 (Homo sapiens, UniProt Q12809).
Description: Inhibition of human ERG expressed in HEK293 cells measured after 5 mins by whole cell patch clamp method
Data set [4] addresses Activin receptor type-1-like (Homo sapiens) (UniProt P37023). As to the kind of experiment: Inhibition of ALK1 (unknown origin) at 1 uM.
A short description of data set [5]: in vitro. The conditions noted are these: human, Caco-2.
Description: Apparent permeability across basolateral to apical membrane in human Caco2 cells at 5 uM incubated for 120 mins in orbital shaker by LC-QTOF/MS analysis
Data set [6] deals with T1, Cytochrome P450 2B6 (Homo sapiens, UniProt P20813).
T1 sequence (P20813 whole entry): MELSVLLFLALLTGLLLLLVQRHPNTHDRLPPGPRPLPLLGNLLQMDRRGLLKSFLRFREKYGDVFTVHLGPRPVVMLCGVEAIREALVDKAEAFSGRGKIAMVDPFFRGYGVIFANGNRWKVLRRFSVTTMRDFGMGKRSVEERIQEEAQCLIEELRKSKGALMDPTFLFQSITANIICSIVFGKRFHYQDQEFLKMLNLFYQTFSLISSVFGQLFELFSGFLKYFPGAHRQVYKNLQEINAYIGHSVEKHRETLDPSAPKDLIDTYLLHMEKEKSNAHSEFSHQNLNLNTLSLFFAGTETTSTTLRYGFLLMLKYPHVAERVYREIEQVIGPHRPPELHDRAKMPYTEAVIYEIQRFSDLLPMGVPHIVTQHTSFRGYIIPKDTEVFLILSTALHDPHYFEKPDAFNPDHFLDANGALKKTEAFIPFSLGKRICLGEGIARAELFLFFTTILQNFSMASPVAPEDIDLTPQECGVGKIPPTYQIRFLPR
Description: Inhibition of CYP2B6 in human liver microsomes using bupropion as substrate incubated for 40 mins in presence of NADPH by LC-MS/MS analysis

For data set [7], the target named is Bone morphogenetic protein receptor type-1B (Homo sapiens) (UniProt O00238). Put plainly: Inhibition of ALK6 (unknown origin) at 1 uM.
The target of data set [8] is T2, TGF-beta receptor type-1 (Homo sapiens, UniProt P36897).
T2 sequence (P36897 whole entry): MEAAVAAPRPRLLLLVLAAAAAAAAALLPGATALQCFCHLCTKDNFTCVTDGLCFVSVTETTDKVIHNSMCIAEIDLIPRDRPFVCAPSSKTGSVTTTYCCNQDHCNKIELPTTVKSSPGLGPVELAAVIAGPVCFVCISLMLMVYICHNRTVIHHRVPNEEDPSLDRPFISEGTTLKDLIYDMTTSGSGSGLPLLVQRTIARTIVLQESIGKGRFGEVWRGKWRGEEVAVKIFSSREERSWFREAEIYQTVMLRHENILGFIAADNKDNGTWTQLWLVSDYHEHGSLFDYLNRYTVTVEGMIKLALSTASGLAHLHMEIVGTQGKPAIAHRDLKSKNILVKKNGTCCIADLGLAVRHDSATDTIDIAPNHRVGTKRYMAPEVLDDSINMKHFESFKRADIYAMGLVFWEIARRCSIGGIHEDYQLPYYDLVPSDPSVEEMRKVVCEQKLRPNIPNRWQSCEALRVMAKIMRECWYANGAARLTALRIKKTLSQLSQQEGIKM
It counts as cell-based, HEK293.
Description: Inhibition of ALK5 (unknown origin) expressed in HEK293 cells transfected with CAGA-luciferase and Renilla luciferase reporter measured after 24 hrs by dual luciferase reporter assay

The target of data set [9] is Mitogen-activated protein kinase kinase kinase kinase 4 (Homo sapiens) (UniProt O95819). As to the kind of experiment: Inhibition of MAP4K4 (unknown origin) at 1 uM.

SMILES strings stand for the structures. Activity calls are given as the source filed them. No cut-off for these calls is given here.

Sequence of Mitogen-activated protein kinase kinase kinase kinase 4 (Homo sapiens) (O95819 2-1239 limits assumed): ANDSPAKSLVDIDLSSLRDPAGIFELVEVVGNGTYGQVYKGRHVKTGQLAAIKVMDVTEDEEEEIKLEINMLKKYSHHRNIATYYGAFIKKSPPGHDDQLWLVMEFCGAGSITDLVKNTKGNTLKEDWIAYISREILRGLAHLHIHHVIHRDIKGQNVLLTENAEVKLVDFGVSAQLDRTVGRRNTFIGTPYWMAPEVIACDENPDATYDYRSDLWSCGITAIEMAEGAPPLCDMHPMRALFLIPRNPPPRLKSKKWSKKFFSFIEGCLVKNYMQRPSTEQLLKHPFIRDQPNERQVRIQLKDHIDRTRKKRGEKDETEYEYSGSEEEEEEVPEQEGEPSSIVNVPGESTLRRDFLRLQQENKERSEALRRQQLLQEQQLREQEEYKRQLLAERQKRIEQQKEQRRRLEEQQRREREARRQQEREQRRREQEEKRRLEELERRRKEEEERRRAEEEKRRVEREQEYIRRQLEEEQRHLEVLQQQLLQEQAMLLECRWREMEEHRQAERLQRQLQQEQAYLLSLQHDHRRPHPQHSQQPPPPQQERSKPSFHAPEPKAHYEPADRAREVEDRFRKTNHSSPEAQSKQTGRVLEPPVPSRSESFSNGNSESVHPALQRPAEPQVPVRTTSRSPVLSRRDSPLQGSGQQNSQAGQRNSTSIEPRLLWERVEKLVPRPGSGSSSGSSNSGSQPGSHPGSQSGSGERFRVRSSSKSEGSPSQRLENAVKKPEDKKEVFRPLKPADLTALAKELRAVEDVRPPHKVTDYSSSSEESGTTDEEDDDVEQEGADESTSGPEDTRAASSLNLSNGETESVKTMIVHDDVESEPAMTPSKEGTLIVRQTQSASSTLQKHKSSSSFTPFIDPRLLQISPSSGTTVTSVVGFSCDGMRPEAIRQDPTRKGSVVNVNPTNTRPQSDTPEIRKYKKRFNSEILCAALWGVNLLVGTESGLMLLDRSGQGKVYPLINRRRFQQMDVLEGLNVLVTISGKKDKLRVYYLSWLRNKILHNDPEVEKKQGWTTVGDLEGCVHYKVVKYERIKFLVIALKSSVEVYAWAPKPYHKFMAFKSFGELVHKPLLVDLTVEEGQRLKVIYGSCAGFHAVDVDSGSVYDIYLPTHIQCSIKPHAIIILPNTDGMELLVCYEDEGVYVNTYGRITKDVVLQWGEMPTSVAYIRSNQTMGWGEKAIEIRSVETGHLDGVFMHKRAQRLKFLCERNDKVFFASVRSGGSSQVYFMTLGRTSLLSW
Sequence of Voltage-gated inwardly rectifying potassium channel KCNH2 (Q12809 whole entry): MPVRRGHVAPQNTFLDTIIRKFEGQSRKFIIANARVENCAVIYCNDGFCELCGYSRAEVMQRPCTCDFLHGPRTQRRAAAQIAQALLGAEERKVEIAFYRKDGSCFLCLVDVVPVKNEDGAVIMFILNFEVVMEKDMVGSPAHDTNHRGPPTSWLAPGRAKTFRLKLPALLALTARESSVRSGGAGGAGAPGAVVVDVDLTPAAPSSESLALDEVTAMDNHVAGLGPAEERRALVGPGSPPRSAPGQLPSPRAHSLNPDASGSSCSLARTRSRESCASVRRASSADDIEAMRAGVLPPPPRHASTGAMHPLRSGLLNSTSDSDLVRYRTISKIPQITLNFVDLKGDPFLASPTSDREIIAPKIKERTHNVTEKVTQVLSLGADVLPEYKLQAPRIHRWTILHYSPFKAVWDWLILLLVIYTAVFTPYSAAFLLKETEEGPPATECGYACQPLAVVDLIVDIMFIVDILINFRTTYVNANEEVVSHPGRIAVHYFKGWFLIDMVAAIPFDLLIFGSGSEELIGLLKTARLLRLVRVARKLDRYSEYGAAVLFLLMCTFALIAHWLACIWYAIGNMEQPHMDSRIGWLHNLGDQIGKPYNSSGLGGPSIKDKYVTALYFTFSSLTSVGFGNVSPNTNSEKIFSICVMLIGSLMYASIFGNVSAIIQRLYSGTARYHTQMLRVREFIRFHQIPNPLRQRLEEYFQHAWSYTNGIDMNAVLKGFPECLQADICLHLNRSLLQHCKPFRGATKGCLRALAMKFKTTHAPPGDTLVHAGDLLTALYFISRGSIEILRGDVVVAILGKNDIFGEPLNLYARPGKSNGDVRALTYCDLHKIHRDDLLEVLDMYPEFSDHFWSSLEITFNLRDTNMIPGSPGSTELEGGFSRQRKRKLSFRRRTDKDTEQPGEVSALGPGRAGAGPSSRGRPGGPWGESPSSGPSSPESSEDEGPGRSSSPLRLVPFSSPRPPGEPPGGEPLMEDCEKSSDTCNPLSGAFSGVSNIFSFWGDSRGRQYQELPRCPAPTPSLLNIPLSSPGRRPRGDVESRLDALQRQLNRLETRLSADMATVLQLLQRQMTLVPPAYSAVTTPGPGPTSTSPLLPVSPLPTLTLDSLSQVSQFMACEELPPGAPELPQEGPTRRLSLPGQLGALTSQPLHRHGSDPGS
Sequence of Bone morphogenetic protein receptor type-1B (Homo sapiens) (O00238 whole entry): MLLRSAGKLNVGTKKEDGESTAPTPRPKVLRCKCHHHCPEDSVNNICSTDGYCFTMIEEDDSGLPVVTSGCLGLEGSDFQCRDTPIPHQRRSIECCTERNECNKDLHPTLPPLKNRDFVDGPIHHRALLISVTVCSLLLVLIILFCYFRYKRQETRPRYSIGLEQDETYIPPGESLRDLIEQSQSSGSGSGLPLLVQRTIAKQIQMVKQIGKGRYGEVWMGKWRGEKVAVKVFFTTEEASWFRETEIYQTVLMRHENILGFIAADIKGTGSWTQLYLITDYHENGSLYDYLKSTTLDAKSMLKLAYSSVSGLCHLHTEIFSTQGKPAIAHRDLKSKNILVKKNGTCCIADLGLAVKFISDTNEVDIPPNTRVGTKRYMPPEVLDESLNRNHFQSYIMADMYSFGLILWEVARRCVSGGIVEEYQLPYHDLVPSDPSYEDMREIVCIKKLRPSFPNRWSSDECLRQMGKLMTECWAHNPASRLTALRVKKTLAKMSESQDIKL
Sequence of Activin receptor type-1-like (Homo sapiens) (P37023 whole entry): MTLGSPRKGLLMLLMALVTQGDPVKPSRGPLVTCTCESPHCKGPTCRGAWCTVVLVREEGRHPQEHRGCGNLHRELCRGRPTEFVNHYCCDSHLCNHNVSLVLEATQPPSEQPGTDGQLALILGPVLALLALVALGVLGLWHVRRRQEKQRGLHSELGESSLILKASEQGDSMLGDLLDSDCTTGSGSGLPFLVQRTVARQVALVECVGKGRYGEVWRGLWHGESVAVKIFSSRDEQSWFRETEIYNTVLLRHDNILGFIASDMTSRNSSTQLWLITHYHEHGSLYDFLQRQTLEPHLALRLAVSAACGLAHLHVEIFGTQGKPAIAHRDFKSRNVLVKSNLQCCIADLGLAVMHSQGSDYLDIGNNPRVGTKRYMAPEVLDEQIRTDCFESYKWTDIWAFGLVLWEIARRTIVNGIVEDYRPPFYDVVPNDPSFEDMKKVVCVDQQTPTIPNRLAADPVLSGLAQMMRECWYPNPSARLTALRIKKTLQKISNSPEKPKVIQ

A word on the IC50: it is the concentration that inhibits the measured activity by half. A lower IC50 goes with inhibition by little substance. By Papp B→A is commonly meant how fast a substance crosses the layer from the basolateral side. As to `COc1cc(-c2cncc(-c3ccc(N4CCN(C)CC4)cc3)c2C)cc(F)c1C(N)=O`, the Stability entry in data set [1] and in data set [2] was “Stable” in each case. Moreover, the half-inhibitory concentration (IC50) in data set [3] is above 30 µM; in [6] it was above 50 µM; in data set [8], 4.3 µM. For the same molecule, the inhibition entry in [4], in [7] and in data set [9] was “Active” throughout. The Papp B→A at 2 h, 5 µM in data set [5] is 16.2 ×10⁻⁶ cm/s.
